# From patent publication US10479784B2, “Substituted pyrazin-2-amines as inhibitors of ATR kinase” (Vertex Pharmaceuticals Incorporated, priority 2008, dated 2019)
# Biological target: full-length ATR (Homo sapiens (Human), UniProt Q13535)
# Experiment: ATR Inhibition Assay (radioactive-phosphate incorporation)
# Format: biochemical
# Settings: read-out: ATR Ki
# How it was run: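 Ki(app) was derived by non-linear regression of background-corrected initial rates of 33P incorporation into an 800 μM target peptide, read by phosphocellulose filter scintillation counting. Reaction conditions: 5 nM full-length ATR, 10 μM [γ-33P]ATP, pH 7.5 Tris buffer with MgCl2 and DTT, 25 °C, 10-min preincubation, 24 h run.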
# Sequence of full-length ATR (Q13535 whole entry): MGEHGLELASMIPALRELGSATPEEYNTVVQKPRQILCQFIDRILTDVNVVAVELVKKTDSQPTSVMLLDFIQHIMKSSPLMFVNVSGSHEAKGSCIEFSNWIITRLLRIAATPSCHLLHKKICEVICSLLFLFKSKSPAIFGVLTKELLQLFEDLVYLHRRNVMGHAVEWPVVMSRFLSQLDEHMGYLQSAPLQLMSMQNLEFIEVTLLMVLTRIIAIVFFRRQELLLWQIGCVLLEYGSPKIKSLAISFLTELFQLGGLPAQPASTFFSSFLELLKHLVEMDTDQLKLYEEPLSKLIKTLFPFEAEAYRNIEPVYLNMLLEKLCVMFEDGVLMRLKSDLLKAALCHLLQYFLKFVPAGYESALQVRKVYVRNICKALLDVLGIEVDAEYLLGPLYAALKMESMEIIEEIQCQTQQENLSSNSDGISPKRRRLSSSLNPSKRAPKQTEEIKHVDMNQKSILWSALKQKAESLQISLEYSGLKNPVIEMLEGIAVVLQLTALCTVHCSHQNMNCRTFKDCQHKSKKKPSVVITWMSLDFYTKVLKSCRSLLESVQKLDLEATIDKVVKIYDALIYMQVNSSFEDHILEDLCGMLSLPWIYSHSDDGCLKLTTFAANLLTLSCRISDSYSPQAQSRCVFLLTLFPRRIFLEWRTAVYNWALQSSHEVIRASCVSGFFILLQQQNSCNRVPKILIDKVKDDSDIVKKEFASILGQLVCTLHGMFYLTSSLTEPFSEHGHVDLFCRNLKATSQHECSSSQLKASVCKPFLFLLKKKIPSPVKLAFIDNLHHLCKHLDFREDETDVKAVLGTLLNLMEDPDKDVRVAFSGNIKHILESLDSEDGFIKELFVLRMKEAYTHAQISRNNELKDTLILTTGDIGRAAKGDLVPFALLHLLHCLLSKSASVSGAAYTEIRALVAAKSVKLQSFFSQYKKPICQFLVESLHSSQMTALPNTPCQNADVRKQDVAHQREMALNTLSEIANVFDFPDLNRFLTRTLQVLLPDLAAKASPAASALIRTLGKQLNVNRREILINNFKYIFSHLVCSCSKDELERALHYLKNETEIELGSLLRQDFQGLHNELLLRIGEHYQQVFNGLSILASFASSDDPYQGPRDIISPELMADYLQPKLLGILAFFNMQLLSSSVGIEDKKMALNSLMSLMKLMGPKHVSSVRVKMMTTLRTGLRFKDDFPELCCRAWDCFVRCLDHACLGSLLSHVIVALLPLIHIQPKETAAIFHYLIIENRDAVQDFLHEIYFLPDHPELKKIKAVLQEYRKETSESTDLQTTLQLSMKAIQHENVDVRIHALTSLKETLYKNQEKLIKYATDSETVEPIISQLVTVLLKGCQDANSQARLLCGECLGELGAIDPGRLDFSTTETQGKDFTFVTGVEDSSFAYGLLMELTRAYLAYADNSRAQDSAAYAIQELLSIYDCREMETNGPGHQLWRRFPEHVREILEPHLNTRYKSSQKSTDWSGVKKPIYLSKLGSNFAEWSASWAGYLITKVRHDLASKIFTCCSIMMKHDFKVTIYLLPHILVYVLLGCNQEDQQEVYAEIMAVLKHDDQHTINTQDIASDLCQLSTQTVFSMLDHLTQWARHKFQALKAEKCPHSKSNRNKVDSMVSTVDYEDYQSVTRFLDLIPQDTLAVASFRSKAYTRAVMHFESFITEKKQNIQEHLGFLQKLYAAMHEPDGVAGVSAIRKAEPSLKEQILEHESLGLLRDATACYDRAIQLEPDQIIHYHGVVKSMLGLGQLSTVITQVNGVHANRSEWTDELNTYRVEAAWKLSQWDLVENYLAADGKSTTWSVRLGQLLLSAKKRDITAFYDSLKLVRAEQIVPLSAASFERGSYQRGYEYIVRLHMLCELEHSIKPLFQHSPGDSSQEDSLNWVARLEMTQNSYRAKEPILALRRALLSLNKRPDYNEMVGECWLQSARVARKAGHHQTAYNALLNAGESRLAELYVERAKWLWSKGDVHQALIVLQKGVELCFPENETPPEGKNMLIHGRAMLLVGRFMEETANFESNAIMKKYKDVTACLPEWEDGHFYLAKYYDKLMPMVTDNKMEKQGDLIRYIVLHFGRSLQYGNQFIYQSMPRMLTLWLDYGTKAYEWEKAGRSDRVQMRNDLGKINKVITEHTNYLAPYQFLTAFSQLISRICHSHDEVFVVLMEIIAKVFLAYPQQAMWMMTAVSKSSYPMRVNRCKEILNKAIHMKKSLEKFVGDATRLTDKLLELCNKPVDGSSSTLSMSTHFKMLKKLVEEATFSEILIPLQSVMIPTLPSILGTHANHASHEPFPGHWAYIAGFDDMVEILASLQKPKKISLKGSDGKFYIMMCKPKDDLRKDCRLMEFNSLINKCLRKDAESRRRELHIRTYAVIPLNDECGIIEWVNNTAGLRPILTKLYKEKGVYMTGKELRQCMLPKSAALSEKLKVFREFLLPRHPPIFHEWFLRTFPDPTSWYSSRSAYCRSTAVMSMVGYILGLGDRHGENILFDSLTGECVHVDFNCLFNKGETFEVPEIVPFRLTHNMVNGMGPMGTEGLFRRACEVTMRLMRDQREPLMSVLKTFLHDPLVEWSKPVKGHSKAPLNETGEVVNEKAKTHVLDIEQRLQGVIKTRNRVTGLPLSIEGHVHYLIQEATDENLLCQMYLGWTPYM
row,SMILES,Ki [nM]
1,"Cc1ccccc1-c1nnc(-c2nc(-c3ccc(C(=O)N(C)C)cc3)cnc2N)o1 [IA-71, 4-[5-amino-6-[5-(o-tolyl)-1,3,4-oxadiazol-2-yl]pyrazin-2-yl]-N,N-dimethyl-benzamide]",≤ 10
2,"Nc1ncc(-c2ccc(NCCN3CCOCC3)nc2)nc1-c1nnc(-c2ccccc2)o1 [IA-72, 5-[6-(2-morpholinoethylamino)-3-pyridyl]-3-(5-phenyl-1,3,4-oxadiazol-2-yl)pyrazin-2-amine]",100 to 5000
3,"CN(C)C(=O)c1ccc(-c2cnc(N)c(-c3nnc(-c4cccc(CNC(=O)OC(C)(C)C)c4)o3)n2)cc1 [IA-73, tert-butyl N-[[3-[5-[3-amino-6-[4-(dimethylcarbamoyl)phenyl]pyrazin-2-yl]-1,3,4-oxadiazol-2-yl]phenyl]methyl]carbamate]",≤ 10
4,"N#Cc1ncccc1-c1cnc(N)c(-c2nnc(-c3ccccc3)o2)n1 [IA-74, 3-[5-amino-6-(5-phenyl-1,3,4-oxadiazol-2-yl)pyrazin-2-yl]pyridine-2-carbonitrile]",≤ 10
5,"CN(C)C(=O)c1ccc(-c2cnc(N)c(-c3nnc(-c4ccc(CO)cc4)o3)n2)cc1 [IA-76, 4-[5-amino-6-[5-[4-(hydroxymethyl)phenyl]-1,3,4-oxadiazol-2-yl]pyrazin-2-yl]-N,N-dimethyl-benzamide]",≤ 10
6,"CC(C)S(=O)(=O)c1ccc(-c2cnc(N)c(-c3nnc(CC(=O)O)o3)n2)cc1 [IA-78, 2-[5-[3-amino-6-(4-isopropylsulfonylphenyl)pyrazin-2-yl]-1,3,4-oxadiazol-2-yl]acetic acid]",10 to 100
7,"CC(C)S(=O)(=O)c1ccc(-c2cnc(N)c(-c3nnc(C(=O)N4CCCNCC4)o3)n2)cc1 [IA-79, [5-[3-amino-6-(4-isopropylsulfonylphenyl)pyrazin-2-yl]-1,3,4-oxadiazol-2-yl]-(1,4-diazepan-1-yl)methanone]",10 to 100
8,"CC(C)S(=O)(=O)c1ccc(-c2cnc(N)c(-c3nnc(-c4cccc([C@@H](C)N)c4)o3)n2)cc1 [IA-80, 3-[5-[3-[(1R)-1-aminoethyl]phenyl]-1,3,4-oxadiazol-2-yl]-5-(4-isopropylsulfonylphenyl)pyrazin-2-amine]",≤ 10
9,"CC(C)S(=O)(=O)c1ccc(-c2cnc(N)c(-c3nnc(C(=O)NC4CCCCC4N)o3)n2)cc1 (centres unmarked) [IA-81, N-(2-aminocyclohexyl)-5-[3-amino-6-(4-isopropylsulfonylphenyl)pyrazin-2-yl]-1,3,4-oxadiazole-2-carboxamide]",100 to 5000
10,"CC(C)S(=O)(=O)c1ccc(-c2cnc(N)c(-c3nnc(NC(=O)CN)o3)n2)cc1 [IA-82, 2-amino-N-[5-[3-amino-6-(4-isopropylsulfonylphenyl)pyrazin-2-yl]-1,3,4-oxadiazol-2-yl]acetamide]",100 to 5000
11,"CCNCc1ccc(-c2nnc(-c3nc(-c4ccc(S(=O)(=O)C(C)C)cc4)cnc3N)o2)s1 [IA-83, 3-[5-[5-(ethylaminomethyl)-2-thienyl]-1,3,4-oxadiazol-2-yl]-5-(4-isopropylsulfonylphenyl)pyrazin-2-amine]",≤ 10
12,"CC(C)S(=O)(=O)c1ccc(-c2cnc(N)c(-c3nnc(-c4cccc(C5CCCN5)c4)o3)n2)cc1 (centres unmarked) [IA-84, 5-(4-isopropylsulfonylphenyl)-3-[5-(3-pyrrolidin-2-ylphenyl)-1,3,4-oxadiazol-2-yl]pyrazin-2-amine]",≤ 10
13,"CN(C)C(=O)c1ccc(-c2cnc(N)c(-c3nnc(-c4cccc(O)c4)o3)n2)cc1 [IA-85, 4-[5-amino-6-[5-(3-hydroxyphenyl)-1,3,4-oxadiazol-2-yl]pyrazin-2-yl]-N,N-dimethyl-benzamide]",10 to 100
14,"COc1cnccc1-c1cnc(N)c(-c2nnc(-c3ccccc3)o2)n1 [IA-86, 5-(3-methoxy-4-pyridyl)-3-(5-phenyl-1,3,4-oxadiazol-2-yl)pyrazin-2-amine]",100 to 5000
15,"CN(C)C(=O)c1ccc(-c2cnc(N)c(-c3nnc(-c4ccc(O)cc4)o3)n2)cc1 [IA-87, 4-[5-amino-6-[5-(4-hydroxyphenyl)-1,3,4-oxadiazol-2-yl]pyrazin-2-yl]-N,N-dimethyl-benzamide]",≤ 10
16,"CNCc1ccc(-c2nnc(-c3nc(-c4ccc(S(=O)(=O)C(C)CCO)cc4)cnc3N)o2)cc1 (centres unmarked) [IA-88, 3-[4-[5-amino-6-[5-[4-(methylaminomethyl)phenyl]-1,3,4-oxadiazol-2-yl]pyrazin-2-yl]phenyl]sulfonylbutan-1-ol]",≤ 10
17,"CC(C)[S+]([O-])c1ccc(-c2cnc(N)c(-c3nnc(-c4ccccc4)o3)n2)cc1 (centres unmarked) [IA-90, 5-(4-isopropylsulfinylphenyl)-3-(5-phenyl-1,3,4-oxadiazol-2-yl)pyrazin-2-amine]",≤ 10
18,"CC(C)S(=O)(=O)c1ccc(-c2cnc(N)c(-c3nnc(CCCN)o3)n2)cc1 [IA-91, 3-[5-(3-aminopropyl)-1,3,4-oxadiazol-2-yl]-5-(4-isopropylsulfonylphenyl)pyrazin-2-amine]",100 to 5000
19,"CC(C)S(=O)(=O)c1ccc(-c2cnc(N)c(-c3nnc(CCCCN)o3)n2)cc1 [IA-92, 3-[5-(4-aminobutyl)-1,3,4-oxadiazol-2-yl]-5-(4-isopropylsulfonylphenyl) pyrazin-2-amine]",100 to 5000
20,"Nc1ncc(-c2cccc3ccccc23)nc1-c1nnc(-c2ccccc2)o1 [IA-93, 5-(1-naphthyl)-3-(5-phenyl-1,3,4-oxadiazol-2-yl)pyrazin-2-amine]",100 to 5000
21,"CN(C)c1ccccc1-c1cnc(N)c(-c2nnc(-c3ccccc3)o2)n1 [IA-94, 5-(2-(dimethylamino)phenyl)-3-(5-phenyl-1,3,4-oxadiazol-2-yl)pyrazin-2-amine]",100 to 5000
22,"CC(C)S(=O)(=O)c1ccc(-c2cnc(N)c(-c3nnc(C4=CCN(C(=O)OC(C)(C)C)CC4)o3)n2)cc1 [IA-95, tert-butyl 4-[5-[3-amino-6-(4-isopropylsulfonylphenyl)pyrazin-2-yl]-1,3,4-oxadiazol-2-yl]-3,6-dihydro-2H-pyridine-1-carboxylate]",100 to 5000
23,"Nc1ncc(-c2cccc(C(F)(F)F)c2)nc1-c1nnc(-c2ccccc2)o1 [IA-96, 3-(5-phenyl-1,3,4-oxadiazol-2-yl)-5-[3-(trifluoromethyl)phenyl]pyrazin-2-amine]",100 to 5000

# Further lines, results first:
row,Ki [nM],SMILES
1,10 to 100,"CC(C)S(=O)(=O)c1ccc(-c2cnc(N)c(-c3nnc(NCCCN)o3)n2)cc1 [IA-97, N-[5-[3-amino-6-(4-isopropylsulfonylphenyl)pyrazin-2-yl]-1,3,4-oxadiazol-2-yl]propane-1,3-diamine]"
2,10 to 100,"CC(C)S(=O)(=O)c1ccc(-c2cnc(N)c(-c3nnc(C(=O)N4CCCC(N)C4)o3)n2)cc1 (centres unmarked) [IA-98, [5-[3-amino-6-(4-isopropylsulfonylphenyl)pyrazin-2-yl]-1,3,4-oxadiazol-2-yl]-(3-amino-1-piperidyl)methanone]"
3,10 to 100,"NC(=O)c1cccc(-c2cnc(N)c(-c3nnc(-c4ccccc4)o3)n2)c1 [IA-100, 3-[5-amino-6-(5-phenyl-1,3,4-oxadiazol-2-yl)pyrazin-2-yl]benzamide]"
4,100 to 5000,"CN(C)C(=O)c1ccc(-c2cnc(N)c(-c3nnc(C4CC4)o3)n2)cc1 [IA-101, 4-[5-amino-6-(5-cyclopropyl-1,3,4-oxadiazol-2-yl)pyrazin-2-yl]-N,N-dimethyl-benzamide]"
5,≤ 10,"CC(C)S(=O)(=O)c1ccc(-c2cnc(N)c(-c3nnc(-c4ccc(C5CCCN5)cc4)o3)n2)cc1 (centres unmarked) [IA-102, 5-(4-isopropylsulfonylphenyl)-3-[5-(4-pyrrolidin-2-ylphenyl)-1,3,4-oxadiazol-2-yl]pyrazin-2-amine]"
6,10 to 100,"COc1ccccc1Nc1nnc(-c2nc(-c3ccc(C(=O)N(C)C)cc3)cnc2N)o1 [IA-103, 4-[5-amino-6-[5-(2-methoxyanilino)-1,3,4-oxadiazol-2-yl]pyrazin-2-yl]-N,N-dimethyl-benzamide]"
7,10 to 100,"Nc1ncc(-c2ccsc2)nc1-c1nnc(-c2ccccc2)o1 [IA-104, 3-(5-phenyl-1,3,4-oxadiazol-2-yl)-5-(3-thienyl)pyrazin-2-amine]"
8,100 to 5000,"COC(=O)c1ccccc1-c1cnc(N)c(-c2nnc(-c3ccccc3)o2)n1 [IA-105, methyl 2-[5-amino-6-(5-phenyl-1,3,4-oxadiazol-2-yl)pyrazin-2-yl]benzoate]"
9,10 to 100,"CN(C)C(=O)c1ccc(-c2cnc(N)c(-c3nnc(-c4ccc(C(O)CO)cc4)o3)n2)cc1 (centres unmarked) [IA-106, 4-[5-amino-6-[5-[4-(1,2-dihydroxyethyl)phenyl]-1,3,4-oxadiazol-2-yl]pyrazin-2-yl]-N,N-dimethyl-benzamide]"
10,≤ 10,"CC(C)S(=O)(=O)c1ccc(-c2cnc(N)c(-c3nnc(-c4ccc(CCN)cc4)o3)n2)cc1 [IA-107, 3-[5-[4-(2-aminoethyl)phenyl]-1,3,4-oxadiazol-2-yl]-5-(4-isopropylsulfonylphenyl)pyrazin-2-amine]"
11,≤ 10,"CC(C)Oc1ccccc1-c1nnc(-c2nc(-c3ccc(C(=O)N(C)C)cc3)cnc2N)o1 [IA-108, 4-[5-amino-6-[5-(2-isopropoxyphenyl)-1,3,4-oxadiazol-2-yl]pyrazin-2-yl]-N,N-dimethyl-benzamide]"
12,100 to 5000,"CC(C)S(=O)(=O)c1ccc(-c2cnc(N)c(-c3nnc(N4CCC(N)CC4)o3)n2)cc1 [IA-109, 3-[5-(4-amino-1-piperidyl)-1,3,4-oxadiazol-2-yl]-5-(4-isopropylsulfonylphenyl)pyrazin-2-amine]"
13,10 to 100,"CC(=O)c1ccc(-c2cnc(N)c(-c3nnc(-c4ccccc4)o3)n2)cc1 [IA-110, 1-[4-[5-amino-6-(5-phenyl-1,3,4-oxadiazol-2-yl)pyrazin-2-yl]phenyl]ethanone]"
14,100 to 5000,"CC(C)S(=O)(=O)c1ccc(-c2cnc(N)c(-c3nnc(N4CC(N)C4)o3)n2)cc1 [IA-111, 3-[5-(3-aminoazetidin-1-yl)-1,3,4-oxadiazol-2-yl]-5-(4-isopropylsulfonylphenyl)pyrazin-2-amine]"
15,≤ 10,"Nc1ncc(-c2ccc(S(=O)(=O)N3CCC3)cc2)nc1-c1nnc(-c2ccccc2)o1 [IA-112, 5-[4-(azetidin-1-ylsulfonyl)phenyl]-3-(5-phenyl-1,3,4-oxadiazol-2-yl)pyrazin-2-amine]"
